According to PMC13576449, “Small-Molecule Activators of PRMT1: Discovery, SAR Analyses, and Proapoptotic Effects in Pancreatic Cancer Cells” (Journal of Medicinal Chemistry, 2026):
Where two headings read alike, the source gives them in different places.

Tests used:
[1] = test system: FLAG-tagged PRMT1 and His-tagged PRMT1; assay: Pulldown assay of PRMT1 homodimerization; format: binding; conditions: 200 (and 500) μM compound vs DMSO
Source text: The poses were obtained by docking with HYBRID onto previously obtained docking poses of TR-033 (TR-07 in cyan) and TR-036 (TR-07 in red). The two monomers are colored in dark and light gray. The dimerization arm of the right monomer is colored in pale pink. The αY helix of the other monomer is colored pale green. The SAH location (derived from a superposition with PDB ID 6NT2) is indicated in pale yellow, but the molecule was not present during the docking calculations. The two images on the right show a close-up view of each docking pose separately. […] The dashed line separates the first and the second monomer. […] The N-terminal αY helix, the SAH location (derived from a superposition with PDB ID 3Q7E), the arginine acceptor site (derived from a superposition with PDB ID 1OR8), the Double E loop, and the dimerization arm are indicated. […] Subsequently, FLAG-beads were washed and bead-bound proteins were analyzed together with an His-tagged PRMT1 input (20 ng) by Western blot using antibodies against the His- and FLAG-tags. As negative control, anti-FLAG resin saturated with FLAG peptide was incubated with His-tagged PRMT1. The His-PRMT1 signals were densitometrically quantified, corrected to the FLAG-PRMT1 signals, and expressed relative to the solvent control, as specified by the numbers below the immunostainings. Molecular weights (kDa) of the protein marker are indicated.
To evaluate the effect of small-molecule PRMT1 modulators on the dimerization of His-tagged and FLAG-tagged PRMT1, pulldown assays were conducted. For the binding reactions, 1 μg of bead-bound FLAG-tagged PRMT1 was preincubated with or without compounds at a total volume of 200 μL IPH buffer (50 mM Tris/HCl pH 8.0, 5 mM EDTA, 0.5% (v/v) NP-40, 150 mM NaCl) containing protease inhibitors (leupeptin, aprotinin, PMSF; Sigma-Aldrich) at 4 °C and under gentle agitation for 30 min. Subsequently, 0.02 μg His-tagged PRMT1 was added per reaction and incubated at 4 °C and under gentle agitation for 15 min. Finally, the beads were washed 3 times in IPH buffer containing 400 mM NaCl and analyzed by SDS-PAGE and immunoblotting.

[2] = test system: PANC-1 cells; assay: Cell viability, CellTiter-Glo assay, PANC-1; format: cell-based, human; conditions: n = 3, read-out: half-maximal inhibitory concentration (IC50) for PANC-1 cell viability
Experimental: (§1) As negative control (Ctrl (−)), PRMT1 enzymes and [^14C-methyl]-SAM were incubated without substrates. Subsequently, samples were separated by SDS-PAGE, blotted, and analyzed by autoradiography. Substrates (H2A, H4 or GST-GAR) and molecular weights (kDa) of the protein marker are indicated. Black lines designate composite images, assembled from the same blots and exposure times. The methylation signals of the substrates were densitometrically quantified, and expressed relative to the DMSO-treated control, as indicated by the numbers below the autoradiographs. Representative results are depicted, with quantification graphs (below the autoradiographs in A and B) summarizing biological replicates. […] Subsequently, GST-GAR was immobilized on glutathione-beads and PRMT1 activity was measured by quantifying the incorporation of ^14C-methyl groups (in cpm) using liquid scintillation counting. […] Cell viability was quantified using the CellTiter-Glo assay. Viability of compound-treated cells is shown in % relative to the viability of solvent-treated cells, which was set to 100% (mean ± SD, n = 3), and then plotted against the logarithm of the compound concentrations. Concentration-viability curves were fitted by nonlinear regression, with the half-maximal inhibitory concentration (IC50) of the compounds for PANC-1 cell viability and the coefficient of determination (R^2) indicated. […] Subsequently, whole-cell extracts were prepared and analyzed by Western blot using antibodies against ADMA, ACTIN (ACT), and VINCULIN (VINC), of which the latter two stainings served as loading controls. Molecular weights (kDa) of the protein marker are indicated. All the ADMA signals per lane were densitometrically quantified, normalized to the signal of the respective loading control and expressed relative to the DMSO-treated control, as indicated by the numbers below the immunostainings.
Cell viability was assessed using the CellTiter-Glo assay (Promega) according to the manufacturer’s instructions. Briefly, PANC-1 and PaTu8988T cells were seeded as triplicates in 96 well plates (5 × 10^3 cells/well) and allowed to adhere for 3–4 h, followed by treatment with the compounds at 11–12 concentrations spanning 0.028–120 μM for 96 h, with DMSO (solvent) treated cells serving as control. Subsequently, cell viability was quantified by measuring luminescence on a microplate reader, and the signal of compound-treated cells was normalized to the signal of the solvent-treated control, which was set to 100%. Cell viability in % was plotted against the logarithm of the compound concentration, and concentration-response curves were fitted by nonlinear regression using a three-parameter logistic model to determine half-maximal inhibitory concentrations (IC50).

[3] = molecular target: T1, FLAG-tagged PRMT1 (Rattus norvegicus, UniProt Q63009); assay: Liquid in vitro methyltransferase assay, scintillation counting (GST-GAR); format: biochemical; conditions: 200 μM compound, except TR-033 100 μM; vs DMSO control
T1 construct: Full-length FLAG-tagged PRMT protein; made in house; host or cells: Sf9 insect cells (baculovirus)
Experimental: as §1
For the liquid methyltransferase assays, the reaction mixtures, containing 1–2 μg eluted FLAG-tagged PRMT1 and as the substrate 1–2 μg eluted GST-GAR protein at a total volume of 20 μL in PBS, were preincubated in the absence (DMSO) or presence of compounds at room temperature and under agitation (800 rpm) for 30 min. […] After washing, 1 mL scintillation liquid (Rotiszint ecoplus, Roth) was added to the bead-bound GST-GAR and incorporated ^14C-methyl groups were quantified using a scintillation counter (LS6500, Beckman Coulter). Background signal was determined using 1 mL of scintillation fluid alone and was subtracted from the measured counts of the enzymatic reactions. Compound-treated PRMT1 activity was expressed as background-corrected counts (in cpm) normalized to the DMSO control.

T1 sequence (Q63009 whole entry): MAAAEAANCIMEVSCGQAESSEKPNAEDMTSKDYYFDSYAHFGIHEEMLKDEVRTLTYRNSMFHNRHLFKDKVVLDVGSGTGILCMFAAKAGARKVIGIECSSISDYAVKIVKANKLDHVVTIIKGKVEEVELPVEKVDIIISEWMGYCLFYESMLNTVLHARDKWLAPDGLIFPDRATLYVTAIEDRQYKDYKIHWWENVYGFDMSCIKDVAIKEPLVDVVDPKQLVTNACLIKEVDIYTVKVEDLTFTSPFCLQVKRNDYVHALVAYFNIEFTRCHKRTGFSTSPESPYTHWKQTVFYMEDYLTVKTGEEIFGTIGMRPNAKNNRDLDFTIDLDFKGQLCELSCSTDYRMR

(Z)-2-(2-{[(1,3-Dioxo-2,3-dihydroisoquinolin-4(1H)-ylidene)methyl]amino}phenyl)-N,N-dimethylethan-1-aminium chloride [ICTR-059]
interaction of FLAG-tagged PRMT1 and His-tagged PRMT1 (homodimerization) [1]: elevated interaction of the two PRMT1 species | IC50 ([2]; 96 h): 19 µM | PRMT1 methylation activity toward GST-GAR, liquid scintillation counting [3]: increased

CCN(CC)Cc1cccc(N/C=C2\C(=O)NC(=O)c3ccccc32)c1.Cl [TR-036, (Z )-N-(3-{[(1,3-Dioxo-2,3-dihydroisoquinoline-4(1 H )-ylidene)methyl]amino}benzyl)-N -ethylethanaminium chloride]
interaction of FLAG-tagged PRMT1 and His-tagged PRMT1 (homodimerization) [1]: elevated interaction of the two PRMT1 species | IC50 ([2]; Homo sapiens, PANC-1, 96 h): 32 µM | PRMT1 methylation activity toward GST-GAR, liquid scintillation counting [3]: increased

CN(C)Cc1cccc(-c2ccc3[nH]c(=O)c4ccccc4c3c2)c1 [TR-033, 2-{3-[(Dimethylamino)methyl]phenyl}phenanthridin-6(5H)-One]
interaction of FLAG-tagged PRMT1 and His-tagged PRMT1 (homodimerization) [1]: elevated interaction of the two PRMT1 species | IC50 ([2]; Homo sapiens, PANC-1, 96 h): 10 µM | PRMT1 methylation activity toward GST-GAR, liquid scintillation counting [3]: increased

CN(C)Cc1cccc(CN/C=C2\C(=O)NC(=O)c3ccccc32)c1.Cl [TR-07, (Z)-1-[3-({[(1,3-Dioxo-2,3-dihydroisoquinolin-4(1H)-lidene)methyl]amino}methyl)phenyl]-N,N-dimethylmethanaminium chloride]
interaction of FLAG-tagged PRMT1 and His-tagged PRMT1 (homodimerization) [1]: elevated interaction of the two PRMT1 species | IC50 ([2]; Homo sapiens, PANC-1, 96 h): 45 µM | PRMT1 methylation activity toward GST-GAR, liquid scintillation counting [3]: increased
